Consider 1 molecule from ChEMBL document CHEMBL5150044, “Macrocyclization of Quinazoline-Based EGFR Inhibitors Leads to Exclusive Mutant Selectivity for EGFR L858R and Del19” (J Med Chem, 2022).

Structures are written as SMILES. Residue numbers refer to the chain shown, from its start. ≈ marks a conversion by molar mass, not a printed value. Calls of active or inactive are those of the source. The calls are words filed in the database; no cut-off is given here.

Data set [1] in a line: Solubility in neutral aqueous solutions after 24 hrs by HPLC analysis. In kind it is physicochemical.
The test system of data set [2] is T1, Receptor-type tyrosine-protein kinase FLT3 (Homo sapiens), P36888 [D835Y].
T1 sequence (whole entry): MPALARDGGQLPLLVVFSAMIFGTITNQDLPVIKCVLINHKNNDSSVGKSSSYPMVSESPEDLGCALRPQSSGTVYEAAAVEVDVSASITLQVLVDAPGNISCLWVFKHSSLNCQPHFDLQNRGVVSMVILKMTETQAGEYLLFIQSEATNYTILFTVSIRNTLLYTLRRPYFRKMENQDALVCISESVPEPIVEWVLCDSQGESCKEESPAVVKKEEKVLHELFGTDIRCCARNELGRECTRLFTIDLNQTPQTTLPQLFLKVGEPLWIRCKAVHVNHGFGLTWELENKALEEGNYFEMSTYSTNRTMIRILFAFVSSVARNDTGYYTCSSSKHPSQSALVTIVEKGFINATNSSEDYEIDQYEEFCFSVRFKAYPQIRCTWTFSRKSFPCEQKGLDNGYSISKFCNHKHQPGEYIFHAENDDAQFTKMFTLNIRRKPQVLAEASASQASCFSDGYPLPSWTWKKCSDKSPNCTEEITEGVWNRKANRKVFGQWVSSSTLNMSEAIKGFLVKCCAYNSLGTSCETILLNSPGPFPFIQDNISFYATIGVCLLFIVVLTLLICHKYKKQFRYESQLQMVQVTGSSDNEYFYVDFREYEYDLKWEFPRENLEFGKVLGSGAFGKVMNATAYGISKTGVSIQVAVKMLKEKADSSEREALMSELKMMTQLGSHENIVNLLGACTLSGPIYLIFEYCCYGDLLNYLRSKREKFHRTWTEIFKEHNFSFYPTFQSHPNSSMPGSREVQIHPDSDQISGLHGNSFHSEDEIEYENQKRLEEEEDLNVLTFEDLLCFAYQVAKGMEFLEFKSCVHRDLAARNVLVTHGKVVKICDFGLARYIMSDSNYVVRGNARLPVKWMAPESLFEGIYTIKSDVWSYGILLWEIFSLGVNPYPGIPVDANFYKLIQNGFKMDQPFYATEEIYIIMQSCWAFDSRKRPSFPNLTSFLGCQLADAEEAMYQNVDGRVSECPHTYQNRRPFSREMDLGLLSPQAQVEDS
Kind of data set: Inhibition of FLT3 D835Y mutant (unknown origin) assessed as percent of control activity at 1 uM by radiometric protein kinase-reaction biology assay; values are per cent of control.

Data set [3] deals with T2, Receptor-type tyrosine-protein kinase FLT3 (Homo sapiens), P36888 [D835V].
T2 sequence (whole entry): T1 sequence (whole entry) with Y835V
Kind of data set: Inhibition of FLT3 D835V mutant (unknown origin) assessed as percent of control activity at 1 uM by radiometric protein kinase-reaction biology assay; values are per cent of control.

Data set [4] can be described thus: Solubility in 100% DMSO after 24 hrs by HPLC analysis. In kind it is physicochemical.
Data set [5] deals with Receptor-type tyrosine-protein kinase FLT3 (Homo sapiens), P36888 [UNDEFINED MUTATION]. Kind of data set: Inhibition of FLT3 ITD/D835V mutant (unknown origin) assessed as percent of control activity at 1 uM by radiometric protein kinase-reaction biology assay; values are per cent of control.
The species entered for another data set is Homo sapiens. Kind of data set: Inhibition of EGFR […] mutant (unknown origin) assessed as percent of control activity at 1 uM by radiometric protein kinase-reaction biology assay; values are per cent of control.
The test system of data set [6] is BaF3. In kind it is cell-based. As to conditions: Mus musculus, dose 10-1000 nM, time 8.0 hrs.
The test system of data set [7] is BaF3. Description: Inhibition of EGFR Del19 mutant in mouse BaF3 cells assessed as protein phosphorylation at 10 to 1000 nM incubated for 8 hrs by Western blot analysis. The class given is cell-based. As to conditions: dose 10-1000 nM.
The nature of data set [8]: Solubility in 10% DMSO after 24 hrs by HPLC analysis. The class given is physicochemical.
For data set [9], the system named is BaF3. In kind it is cell-based. As to conditions: Mus musculus, dose 10-1000 nM, time 8.0 hrs. This is another data set of the same source.

Usually solubility stands for the dissolved amount per volume that the medium holds. By residual activity is commonly meant the activity still measured, relative to the control.

For the molecule `COc1cc2ncnc3c2cc1OCCOCCOc1cc(F)c(Cl)cc1N3`, the solubility at 24 h in data set [1] came out at 0.131 µg/mL (≈ 0.323 µM); in data set [8] it was 0.283 µg/mL (≈ 0.697 µM). For the same molecule, the residual activity in data set [2] was determined as 25%; in [3] it was 5%; in data set [5] it was 33%; in the data set listed under Homo sapiens, 26%. In data set [4], this molecule returned a solubility of 2592 µg/mL (≈ 6390 µM). Moreover, the inhibition result in the data set with BaF3 [6], in the data set on BaF3 [7] and in the data set on BaF3 [9] was “Active” each time.
